US20260078130A1, “NAMPT MODULATORS, PREPARATIONS, AND USES THEREOF” (SIRONAX LTD., priority 2022, published 2026)
Read-outs that look alike come from different tables or passages of the source.

Assays:
[1] = system: endogenous NAMPT in U2OS cells; assay: Cellular NAD+ modulation assay (NAD/NADH-Glo, U2OS cells); type: cell-based; settings: Homo sapiens; for maximal fold induction: read-out: Cellular Emax
Method: Certain compounds described herein were also assayed for their ability to stimulate the endogenous NAMPT in a native cellular environment in a cellular NAD^+ modulation assay. U2OS cells were grown in McCoy's 5A medium with 10% fetal bovine serum, in a humidified incubator with an atmosphere of 95% air and 5% CO2 at 37° C. The assays were initiated by plating 30 μL of U2OS cells in a culture medium with 10% fetal bovine serum, at a density of 3000 cells per well in a Corning® 384-well White/Clear Bottom Polystyrene Microplate. The plates were incubated in 37T incubators for a period of 16 hours. Test compounds with a series of concentrations in DMSO were added to the plates in a volume of 150 nL using Echo Liquid handlers. The plates are then incubated for 24 hours. The medium was removed from the wells, then 10 μL PBS was added to each well. To each well of cells in 10 μL of PBS, 10 μL of base solution with 1% DTAB was added. The plate was briefly mixed on a plate shaker to ensure homogeneity and cell lysis (5 mins). 10p L of 0.4N HCl was added per well. The plate was coved, and all samples were incubated for 15 minutes at 60° C. Then the plate was equilibrated for 10 minutes at room temperature. 10 μL of 0.5M Trizma® base was added to each well of acid-treated cells to neutralize the acid. Finally, 30 μL of NAD/NADH-Glo™ Detection Reagent was added. The plate was gently shaken to mix the samples. The plate was incubated for 40 minutes at room temperature. Luminescence was recorded using a luminometer. The potency measurements for the test compounds were quantified and represented as EC50 (concentration of a compound that gives half-maximal activation) and Emax (fold change of a compound's maximal activation compared to DMSO).

[2] = molecular target: T1, human enzyme NAMPT (full length) (Homo sapiens, UniProt P43490); assay: NMN fluorescence biochemical assay (stimulation of NMN synthesis by NAMPT); settings: for EC50: concentration giving half-maximal activation, read-out: Enzymatic EC50; for Enzymatic Emax: fold change of maximal activation compared to DMSO
T1 construct: human enzyme NAMPT (full length)
T1 sequence (P43490 whole entry): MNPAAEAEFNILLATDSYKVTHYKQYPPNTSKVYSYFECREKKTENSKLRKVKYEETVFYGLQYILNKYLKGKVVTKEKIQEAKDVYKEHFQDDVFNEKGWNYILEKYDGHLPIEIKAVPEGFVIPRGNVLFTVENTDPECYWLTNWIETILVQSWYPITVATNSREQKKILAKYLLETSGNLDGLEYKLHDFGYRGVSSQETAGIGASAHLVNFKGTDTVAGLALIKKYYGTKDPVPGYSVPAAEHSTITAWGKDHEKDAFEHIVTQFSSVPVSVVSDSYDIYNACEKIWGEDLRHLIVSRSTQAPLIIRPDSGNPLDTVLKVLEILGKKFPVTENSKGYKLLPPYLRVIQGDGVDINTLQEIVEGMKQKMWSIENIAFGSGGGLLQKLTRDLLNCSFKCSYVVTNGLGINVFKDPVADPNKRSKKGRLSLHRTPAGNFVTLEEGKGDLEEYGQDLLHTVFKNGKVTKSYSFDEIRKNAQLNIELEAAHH
Method in brief: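 Full-length human NAMPT (100 nM) was preincubated 15 min at 37 °C with compound in 50 mM Tris-HCl pH 7.5, 10 mM MgCl2, 2 mM DTT, then reacted 1 h at 37 °C with 50 μM NAM, 100 μM PRPP, 4 mM ATP (stated solution concentrations). NMN was derivatised with acetophenone/KOH then formic acid and read at Ex/Em 382/445 nm; EC50 and Emax (fold over DMSO) reported.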

[3] = 24 hours incubation, cellular NAD+
[4] = NMN fluorescence assay, purified human NAMPT 100 nM
[5] = 24 hours incubation with compound
[6] = NMN synthesis by purified human NAMPT (100 nM)

SMILES	EC50 [1, 3]	EC50 [2, 4]	Enzymatic Emax [2]	EC50 [1, 5]	EC50 [2, 6]	maximal fold induction [1, 3]	maximal fold induction [1, 5]
O=C1c2ccc(Br)cc2CN1Cc1ccc(O)cc1 [Compound 20, 5-bromo-2-(4-hydroxybenzyl) isoindolin-1-one]			A (A>3)	500 to 5000 nM	500 to 5000 nM		> 1.5
COc1ccccc1CC1c2ccccc2C(=O)N1Cc1ccc2[nH]c(=O)oc2c1 (stereo not drawn) [Compound 142, 6-((1-(2-methoxybenzyl)-3-oxoisoindolin-2-yl)methyl)benzo[d]oxazol-2(3H)-one]			B (3≥B>2)	500 to 5000 nM	< 500 nM		> 1.5
C[C@H]1c2cc(C#N)ccc2C(=O)N1Cc1ccc2[nH]c(=O)oc2c1 (single isomer, unassigned) [Compound 186]			B (3≥B>2)	500 to 5000 nM	≥ 5000 nM		> 1.5
N#CCC1c2ccccc2C(=O)N1Cc1ccc(O)cc1 (stereo not drawn) [Compound 27, 2-(2-(4-hydroxybenzyl)-3-oxoisoindolin-1-yl)acetonitrile]			A (A>3)	5000 to 50000 nM	≥ 5000 nM		> 1.5
Cn1ncc(Cl)c1CC1c2cc(C#N)ccc2C(=O)N1Cc1ccc2[nH]nnc2c1 (stereo not drawn) [Compound 327, 2-((1H-benzo[d][1,2,3]triazol-5-yl)methyl)-3-((4-chloro-1-methyl-1H-pyrazol-5-yl)methyl)-1-oxoisoindoline-5-carbonitrile]	< 500 nM	500 to 5000 nM	A (A>3)			1.2 to 1.5	
Cn1ncc(Cl)c1CC1c2ccc(Cl)cc2C(=O)N1Cc1ccc2[nH]nnc2c1 (stereo not drawn) [Compound 343, 2-((1H-benzo[d][1,2,3]triazol-5-yl)methyl)-6-chloro-3-((4-chloro-1-methyl-1H-pyrazol-5-yl)methyl)isoindolin-1-one]	< 500 nM	< 500 nM	A (A>3)			> 1.5	
Cc1c(CN2C(=O)c3ccccc3C2Cc2ncccc2Br)ccc2[nH]c(=O)oc12 (stereo not drawn) [Compound 349, 6-((1-((3-bromopyridin-2-yl)methyl)-3-oxoisoindolin-2-yl)methyl)-7-methylbenzo[d]oxazol-2(3H)-one]	5000 to 50000 nM	500 to 5000 nM	A (A>3)			> 1.5	
O=C1c2cccc(Br)c2CN1Cc1ccc(O)cc1 [Compound 21, 4-bromo-2-(4-hydroxybenzyl) isoindolin-1-one]			B (3≥B>2)	5000 to 50000 nM	500 to 5000 nM		1.2 to 1.5
O=C1c2ccccc2C(Cc2ncccc2F)N1Cc1ccc2[nH]c(=O)oc2c1 (stereo not drawn) [Compound 214, 6-((1-((3-fluoropyridin-2-yl)methyl)-3-oxoisoindolin-2-yl)methyl)benzo[d]oxazol-2(3H)-one]			A (A>3)	< 500 nM	500 to 5000 nM		> 1.5
O=C1c2ccccc2CN1Cc1ccc(O)cc1 [Compound 12, 2-(4-hydroxybenzyl)isoindolin-1-one]			B (3≥B>2)	5000 to 50000 nM	≥ 5000 nM		1.2 to 1.5
N#Cc1cncc(Cl)c1CC1c2ccccc2C(=O)N1Cc1ccc2[nH]nnc2c1 (stereo not drawn) [Compound 278, 4-((2-((1H-benzo[d][1,2,3]triazol-5-yl)methyl)-3-oxoisoindolin-1-yl)methyl)-5-chloronicotinonitrile]			A (A>3)	< 500 nM	< 500 nM		> 1.5
Cn1c(CC2c3ccccc3C(=O)N2Cc2ccc3[nH]nnc3c2)c(Cl)ccc1=O (stereo not drawn) [Compound 381, 2-((1H-benzo[d][1,2,3]triazol-5-yl)methyl)-3-((3-chloro-1-methyl-6-oxo-1,6-dihydropyridin-2-yl)methyl)isoindolin-1-one]	< 500 nM	< 500 nM	B (3≥B>2)			> 1.5	
O=C1c2ccccc2C(Cc2ccccc2C(F)(F)F)N1Cc1ccc2[nH]c(=O)oc2c1 (stereo not drawn) [Compound 134, 6-((1-oxo-3-(2-(trifluoromethyl)benzyl)isoindolin-2-yl)methyl)benzo[d]oxazol-2(3H)-one]			A (A>3)	500 to 5000 nM	< 500 nM		> 1.5
O=c1ccc2ccccc2n1Cc1ccc(O)cc1 [Compound 5, 1-(4-hydroxybenzyl)quinolin-2(1H)-one]			A (A>3)	500 to 5000 nM	≥ 5000 nM		1.2 to 1.5
O=C1c2ccc(N3CCCC3)cc2C(=O)N1Cc1ccc(O)cc1 [Compound 36, 2-(4-hydroxybenzyl)-5-(pyrrolidin-1-yl)isoindoline-1,3-dione]			A (A>3)	500 to 5000 nM	500 to 5000 nM		1.2 to 1.5
CC1NC(=O)OC12CC(CN1C(=O)c3ccccc3C1Cc1ncccc1Br)C2 (stereo not drawn) [Compound 395, 2-((1-((3-bromopyridin-2-yl)methyl)-3-oxoisoindolin-2-yl)methyl)-8-methyl-5-oxa-7-azaspiro[3.4]octan-6-one]	500 to 5000 nM	500 to 5000 nM	C (2≥C)			> 1.5	

Continued, in another order:

EC50 [1, 3]	EC50 [2, 4]	Enzymatic Emax [2]	EC50 [1, 5]	EC50 [2, 6]	SMILES	maximal fold induction [1, 3]	maximal fold induction [1, 5]
500 to 5000 nM	500 to 5000 nM	B (3≥B>2)			Cn1ncc(Cl)c1CC1c2cc(CN3CC4(COC4)C3)ccc2C(=O)N1CC1CC2(CNC(=O)O2)C1 (stereo not drawn) [Compound 512, 2-((5-((2-oxa-6-azaspiro[3.3]heptan-6-yl)methyl)-3-((4-chloro-1-methyl-1H-pyrazol-5-yl)methyl)-1-oxoisoindolin-2-yl)methyl)-5-oxa-7-azaspiro[3.4]octan-6-one]	> 1.5	
< 500 nM	< 500 nM	B (3≥B>2)			Cc1nn(C)c(CC2c3ccccc3C(=O)N2CC2CC3(CNC(=O)O3)C2)c1Cl (stereo not drawn) [Compound 527, 2-((1-((4-chloro-1,3-dimethyl-1H-pyrazol-5-yl)methyl)-3-oxoisoindolin-2-yl)methyl)-5-oxa-7-azaspiro[3.4]octan-6-one]	> 1.5	
5000 to 50000 nM	≥ 5000 nM	C (2≥C)			Cn1ncc(Cl)c1CC1c2ccccc2C(=O)N1Cc1ccc2nonc2c1 (stereo not drawn) [Compound 600, 2-(benzo[c][1,2,5]oxadiazol-5-ylmethyl)-3-((4-chloro-1-methyl-IH-pyrazol-5-yl)methyl)isoindolin-1-one]	≤ 1.2	
< 500 nM	500 to 5000 nM	A (A>3)			Cn1ncc(Cl)c1CC1c2cc(Br)ccc2C(=O)N1CC1CC2(CNC(=O)O2)C1 (stereo not drawn) [Compound 450, 2-((5-bromo-3-((4-chloro-1-methyl-1H-pyrazol-5-yl)methyl)-1-oxoisoindolin-2-yl)methyl)-5-oxa-7-azaspiro[3.4]octan-6-one]	> 1.5	
500 to 5000 nM	500 to 5000 nM	A (A>3)			COc1ccc(CN2C(=O)c3c(F)cc(Cl)cc3C2Cc2c(Cl)cnn2C)cc1 (stereo not drawn) [Compound 581, 5-chloro-3-((4-chloro-1-methyl-1H-pyrazol-5-yl)methyl)-7-fluoro-2-(4-methoxybenzyl)isoindolin-1-one]	1.2 to 1.5	
< 500 nM	500 to 5000 nM	B (3≥B>2)			Cc1nn(C)c(C#N)c1CC1c2ccccc2C(=O)N1CC1CC2(CNC(=O)O2)C1 (stereo not drawn) [Compound 479, 1,3-dimethyl-4-((3-oxo-2-((6-oxo-5-oxa-7-azaspiro[3.4]octan-2-yl)methyl)isoindolin-1-yl)methyl)-1H-pyrazole-5-carbonitrile]	> 1.5	
< 500 nM	500 to 5000 nM	A (A>3)			Cn1ncc(Cl)c1CC1c2ccccc2C(=O)N1C/C(F)=C/c1nn[nH]c1F (stereo not drawn) [Compound 601, (Z)-3-((4-chloro-1-methyl-1H-pyrazol-5-yl)methyl)-2-(2-fluoro-3-(5-fluoro-1H-1,2,3-triazol-4-yl)allyl)isoindolin-1-one]	1.2 to 1.5	
< 500 nM	< 500 nM	B (3≥B>2)			Cn1ncc(Cl)c1C[C@H]1c2ccccc2C(=O)N1C[C@H]1C[C@]2(CNC(=O)O2)C1 [Compound 406, (2s,4R)-2-(((S)-1-((4-chloro-1-methyl-1H-pyrazol-5-yl)methyl)-3-oxoisoindolin-2-yl)methyl)-5-oxa-7-azaspiro[3.4]octan-6-one]	> 1.5	
